The target of one experiment is RNA-directed RNA polymerase (Hepacivirus hominis, UniProt O39930). Nature of the experiment: Inhibition of Hepatitis C virus NS5B RNA-dependent RNA polymerase. Particulars: read-out: IC50.
Chain of RNA-directed RNA polymerase (O39930 whole entry): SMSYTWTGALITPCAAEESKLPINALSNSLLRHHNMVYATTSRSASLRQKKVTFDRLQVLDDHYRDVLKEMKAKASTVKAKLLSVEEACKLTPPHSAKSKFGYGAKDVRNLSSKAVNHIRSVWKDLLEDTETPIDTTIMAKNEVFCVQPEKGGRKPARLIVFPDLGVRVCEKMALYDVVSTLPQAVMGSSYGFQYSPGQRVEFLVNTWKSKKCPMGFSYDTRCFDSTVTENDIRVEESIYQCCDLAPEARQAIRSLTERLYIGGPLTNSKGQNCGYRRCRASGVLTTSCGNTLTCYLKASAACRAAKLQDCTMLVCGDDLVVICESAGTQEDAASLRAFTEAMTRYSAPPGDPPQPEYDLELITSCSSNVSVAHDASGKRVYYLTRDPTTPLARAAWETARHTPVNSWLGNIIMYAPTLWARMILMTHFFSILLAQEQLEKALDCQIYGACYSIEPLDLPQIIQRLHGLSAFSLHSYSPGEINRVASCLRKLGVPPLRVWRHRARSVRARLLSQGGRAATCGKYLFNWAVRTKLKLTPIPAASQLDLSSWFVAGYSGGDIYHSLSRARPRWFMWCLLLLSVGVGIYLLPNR
As to `N#Cc1c(-c2ccc(Br)cc2)nc(SCc2ccccc2Br)[nH]c1=O`, the IC50 was 10 µM. Same read-out and setting: the value for `COc1cc(CSc2nc(-c3cccc(C)c3)c(C#N)c(=O)[nH]2)cc(OC)c1` was 30 µM.

As for `COc1cc(CSc2nc(-c3ccccc3C)c(C#N)c(=O)[nH]2)cc(OC)c1`, the IC50 was determined as 25 µM.

For the compound `Cc1ccccc1-c1nc(SCc2ccccc2Br)[nH]c(=O)c1C#N`, the IC50 is 32 µM. The same measure, in the same setting: as for `N#Cc1c(-c2ccccc2C(F)(F)F)nc(SCc2ccccc2Br)[nH]c1=O`, the figure is 21 µM; as for `Cc1cccc(CSc2nc(-c3ccc(C(C)C)cc3)c(C#N)c(=O)[nH]2)c1`, 12 µM; as for `CC(C)c1ccc(-c2nc(SCc3cccc([N+](=O)[O-])c3)[nH]c(=O)c2C#N)cc1`, 10 µM. For `CCCCCSc1nc(-c2cccc(C(F)(F)F)c2)c(C#N)c(=O)[nH]1`, the IC50 amounted to 12 µM. The same measure, in the same setting: as for `COc1cc(CSc2nc(-c3ccc(F)cc3F)c(C#N)c(=O)[nH]2)cc(OC)c1`, the figure is 19 µM; as for `Cc1cccc(CSc2nc(-c3ccc(F)cc3F)c(C#N)c(=O)[nH]2)c1`, 57 µM. Same read-out and setting: the value for `N#Cc1c(-c2ccc(F)cc2F)nc(SCc2ccccc2Br)[nH]c1=O` was 13 µM. On to `N#Cc1c(-c2ccc(F)cc2F)nc(SCc2cccc([N+](=O)[O-])c2)[nH]c1=O`, for which the IC50 came to 32 µM. In the case of `COc1cc(CSc2nc(-c3ccc(Cl)cc3Cl)c(C#N)c(=O)[nH]2)cc(OC)c1`, the IC50 was found to be 34 µM. The same measure, in the same setting: the value for `N#Cc1c(-c2ccc(Cl)cc2Cl)nc(SCc2ccc(OC(F)(F)F)cc2)[nH]c1=O` was 11 µM; that for `COc1cc(CSc2nc(-c3ccc(Br)cc3)c(C#N)c(=O)[nH]2)cc(OC)c1` was 13 µM. Still for that read-out and setting: as for `N#Cc1c(-c2ccc(Br)cc2)nc(SCc2cccc([N+](=O)[O-])c2)[nH]c1=O`, the figure is 14 µM.

Take `N#Cc1c(-c2ccc(Br)cc2)nc(SCc2ccccc2C(F)(F)F)[nH]c1=O`: the IC50 was found to be 7.1 µM.

As to `N#Cc1c(-c2ccc(Br)cc2)nc(SCc2ccc(OC(F)(F)F)cc2)[nH]c1=O`, the IC50 is 8.7 µM. Same read-out and setting: the value for `Cc1cccc(CSc2nc(-c3cccc(C)c3)c(C#N)c(=O)[nH]2)c1` was 22 µM. Still for that read-out and setting: as for `Cc1cccc(-c2nc(SCc3cccc([N+](=O)[O-])c3)[nH]c(=O)c2C#N)c1`, the figure is 20 µM; as for `Cc1cccc(-c2nc(SCc3ccc(OC(F)(F)F)cc3)[nH]c(=O)c2C#N)c1`, 8.6 µM; as for `COc1cc(CSc2nc(-c3cccc(C(F)(F)F)c3)c(C#N)c(=O)[nH]2)cc(OC)c1`, 11 µM. Turning to `Cc1cccc(CSc2nc(-c3cccc(C(F)(F)F)c3)c(C#N)c(=O)[nH]2)c1`, the IC50 came to 14 µM. The same measure, in the same setting: the value for `N#Cc1c(-c2cccc(C(F)(F)F)c2)nc(SCc2cccc([N+](=O)[O-])c2)[nH]c1=O` was 13 µM; that for `Cc1cccc(CSc2nc(-c3ccccc3C)c(C#N)c(=O)[nH]2)c1` was 14 µM. On the same count and under the same terms, the value for `Cc1ccccc1-c1nc(SCc2cccc([N+](=O)[O-])c2)[nH]c(=O)c1C#N` was 37 µM; that for `COc1cc(CSc2nc(-c3cc(F)cc(F)c3)c(C#N)c(=O)[nH]2)cc(OC)c1` was 15 µM; that for `Cc1cccc(CSc2nc(-c3cc(F)cc(F)c3)c(C#N)c(=O)[nH]2)c1` was 27 µM. Same read-out and setting: as for `COc1cc(CSc2nc(-c3ccccc3C(F)(F)F)c(C#N)c(=O)[nH]2)cc(OC)c1`, the figure is 12 µM. On to `Cc1cccc(CSc2nc(-c3ccccc3C(F)(F)F)c(C#N)c(=O)[nH]2)c1`, for which the IC50 was 14 µM. Consider `N#Cc1c(-c2ccccc2C(F)(F)F)nc(SCc2ccc(OC(F)(F)F)cc2)[nH]c1=O`, for which the IC50 turned out to be 9.2 µM. On the same count and under the same terms, the value for `COc1cc(CSc2nc(-c3cc(Cl)cc(Cl)c3)c(C#N)c(=O)[nH]2)cc(OC)c1` was 34 µM. The same measure, in the same setting: as for `Cc1cccc(CSc2nc(-c3cc(Cl)cc(Cl)c3)c(C#N)c(=O)[nH]2)c1`, the figure is 29 µM; as for `COc1cc(CSc2nc(-c3ccc(C(C)C)cc3)c(C#N)c(=O)[nH]2)cc(OC)c1`, 25 µM; as for `CC(C)c1ccc(-c2nc(SCc3ccccc3Br)[nH]c(=O)c2C#N)cc1`, 3.8 µM. For `CC(C)c1ccc(-c2nc(SCc3ccc(OC(F)(F)F)cc3)[nH]c(=O)c2C#N)cc1`, the IC50 came out at 9.9 µM. Still for that read-out and setting: the value for `CCCCCSc1nc(-c2ccc(F)cc2F)c(C#N)c(=O)[nH]1` was 12 µM.

For the compound `CCCCCSc1nc(-c2ccc(Cl)cc2Cl)c(C#N)c(=O)[nH]1`, the IC50 was 17 µM. Still for that read-out and setting: the value for `N#Cc1c(-c2ccc(Cl)cc2Cl)nc(SCCCc2ccccc2)[nH]c1=O` was 12 µM. Same read-out and setting: the value for `CCCCCSc1nc(-c2ccc(Br)cc2)c(C#N)c(=O)[nH]1` was 11 µM; that for `N#Cc1c(-c2ccc(Br)cc2)nc(SCCC(=O)Oc2ccccc2)[nH]c1=O` was 30 µM. The same measure, in the same setting: the value for `N#Cc1c(-c2ccc(Br)cc2)nc(SCC2CCCCO2)[nH]c1=O` (stereo unspecified) was 50 µM; that for `CCCCCSc1nc(-c2cccc(C)c2)c(C#N)c(=O)[nH]1` was 18 µM.

With `N#Cc1c(-c2cccc(C(F)(F)F)c2)nc(SCCC(=O)Oc2ccccc2)[nH]c1=O`, the IC50 is 13 µM. On the same count and under the same terms, the value for `CCCCCSc1nc(-c2ccccc2C)c(C#N)c(=O)[nH]1` was 18 µM. Still for that read-out and setting: the value for `CCCCCSc1nc(-c2ccccc2C(F)(F)F)c(C#N)c(=O)[nH]1` was 20 µM.

On to `CCCCCSc1nc(-c2ccc(C(C)C)cc2)c(C#N)c(=O)[nH]1`, for which the IC50 worked out at 12 µM.

With `CC(C)c1ccc(-c2nc(SCC3CCCCO3)[nH]c(=O)c2C#N)cc1` (stereo unspecified), the IC50 amounted to 17 µM. On the same count and under the same terms, as for `Cc1cccc(CSc2nc(-c3ccc(Cl)cc3Cl)c(C#N)c(=O)[nH]2)c1`, the figure is 33 µM; as for `Cc1cccc(CSc2nc(-c3ccc(Br)cc3)c(C#N)c(=O)[nH]2)c1`, 11 µM.

Still in this experiment, the particulars now being: read-out: pIC50 (converted).
Turning to `N#Cc1c(-c2ccc(Br)cc2)nc(SCc2ccccc2C(F)(F)F)[nH]c1=O`, the IC50 is 7.24 µM.

The values above are taken from ChEMBL document CHEMBL3046041, “3D QSAR kNN-MFA studies on thiouracil derivatives as hepatitis C virus inhibitors” (Med Chem Res, 2011).
